According to US6720346B2, “Thiazole benzamide derivatives and pharmaceutical compositions for inhibiting cell proliferation” (Agouron Pharmaceuticals, Inc., priority 2001, dated 2004):
Values belong to the molecule of their own block, whether it stands above or below them.

Key:
CDK2/cyclin A = target: T1, CDK2/cyclin A (Homo sapiens, UniProt P24941); assay: Inhibition of CDK2/cyclin A retinoblastoma kinase activity (Ki; % inhibition); assay type: biochemical; details: for Ki: apparent Ki, CDK2/cyclin A, Rb substrate
T1 construct: made in house; host or cells: CDK2: insect cells (baculovirus); cyclin A: E. coli
How it was run: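 Radiometric filter assay of CDK2/proteolyzed cyclin A (baculovirus-expressed human CDK2, 10 or 19 nM) phosphorylating an Rb fragment with 25 μM [³²P/³³P]ATP in pH 7.4 HEPES, 2% DMSO, at 30 °C for 60 or 75 min under initial-rate conditions. Library compounds screened at 30 nM for % inhibition; apparent Ki from concentration series fit to competitive or tight-binding inhibition equations.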

human CDK4/cyclin D3 = target: T2, human CDK4/cyclin D3 (Homo sapiens, UniProt P11802); assay: Inhibition of CDK4/cyclin D retinoblastoma kinase activity (Ki; % inhibition); assay type: biochemical; details: for Ki: apparent Ki, CDK4/cyclin D3, Rb substrate
T2 construct: made in house; host or cells: insect cells co-infected with baculovirus vectors
T2 sequence (P11802 whole entry): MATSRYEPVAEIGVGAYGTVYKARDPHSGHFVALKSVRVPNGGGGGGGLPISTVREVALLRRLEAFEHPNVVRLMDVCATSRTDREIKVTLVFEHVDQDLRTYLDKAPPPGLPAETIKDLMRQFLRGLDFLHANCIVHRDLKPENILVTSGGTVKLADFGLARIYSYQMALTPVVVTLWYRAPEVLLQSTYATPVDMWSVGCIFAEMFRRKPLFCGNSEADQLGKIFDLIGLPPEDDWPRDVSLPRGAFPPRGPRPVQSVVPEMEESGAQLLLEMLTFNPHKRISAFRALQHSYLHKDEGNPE
T2 sequence (P30281 1-264 partner limits assumed): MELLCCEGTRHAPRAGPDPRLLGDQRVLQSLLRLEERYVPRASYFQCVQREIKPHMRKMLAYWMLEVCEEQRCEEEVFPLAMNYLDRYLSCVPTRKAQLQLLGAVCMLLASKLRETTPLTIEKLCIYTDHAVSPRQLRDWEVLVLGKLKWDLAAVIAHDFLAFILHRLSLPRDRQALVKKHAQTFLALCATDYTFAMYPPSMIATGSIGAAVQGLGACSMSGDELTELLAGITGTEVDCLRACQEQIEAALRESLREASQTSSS
How it was run: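 Insect-cell-expressed CDK4 with truncated cyclin D3 (1-264), 5 nM, phosphorylating His-tagged Rb fragment (386-928) with 25 μM [32/33P]ATP at pH 7.4, 30 °C, 20 min (60 min for tight binders). Filter capture, phosphorimager read; % inhibition at 30 nM compound, Ki from competitive or tight-binding fits.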

HCT-116 cell line = assay: Inhibition of cell growth, MTT tetrazolium salt assay; assay type: cell-based; details: for IC50: Homo sapiens, HCT-116, 120 h, MTT, three to five days
How it was run: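 Cells in McCoy's 5A medium were given 4 h before compound addition in 0.5% (v/v) DMSO, then incubated 3–5 days at 37 °C, 5% CO2. After 4 h with 0.2 mg/mL MTT, DMSO-solubilized formazan was read at 540 nm; 50% and 90% growth-inhibitory concentrations came from semi-log plots against vehicle controls.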

[1] = HCT-116 cells, 0.25 μM compound

Structure (SMILES): Nc1nc(Nc2ccc(C(=O)NCCNc3ccccc3)c(O)c2)sc1C(=O)c1c(F)cccc1F [Example D1, 4-[4-Amino-5-(2,6-difluoro-benzoyl)-thiazol-2-ylamino]-2-hydroxy-N-(2-phenylamino-ethyl)-benzamide]
Ki (CDK2/cyclin A): 9.4 nM
Ki (human CDK4/cyclin D3): 17 nM
IC50 (HCT-116 cell line): 1000 nM

Structure (SMILES): Nc1nc(Nc2ccc(C(=O)Nc3ccccc3F)cc2)sc1C(=O)c1c(F)cccc1F [Example G235]
CDK2 % Inhibition at 0.03 μM (CDK2/cyclin A; 0.03 μM compound): 14%
CDK4 % Inhibition at 0.03 μM (human CDK4/cyclin D3; 0.03 μM compound): 14%
HCT-116 % Inhibition at 0.1 μM (HCT-116 cell line; HCT-116 cells, 0.1 μM compound): 10%
HCT-116 % Inhibition at 0.25 μM (HCT-116 cell line; [1]): 51%

Structure (SMILES): Nc1nc(Nc2ccc(C(=O)NC3CCN(Cc4ccccc4)C3)cc2)sc1C(=O)c1c(F)cccc1F (stereo not drawn) [Example G381]
CDK2 % Inhibition at 0.03 μM (CDK2/cyclin A; 0.03 μM compound, 0.03 µM): 5%
CDK4 % Inhibition at 0.03 μM (human CDK4/cyclin D3; 0.03 μM compound, 0.03 µM): 38%
HCT-116 % Inhibition at 0.1 μM (HCT-116 cell line; HCT-116 cells, 0.1 μM compound, 0.1 µM): 43%
HCT-116 % Inhibition at 0.25 μM (HCT-116 cell line; HCT-116 cells, 0.25 μM compound, 0.25 µM): 88%

Structure (SMILES): NC(=O)CNC(=O)c1ccc(Nc2nc(N)c(C(=O)c3c(Cl)cccc3Cl)s2)cc1 [Example B1, 4-[4-Amino-5-(2,6-dichloro-benzoyl)-thiazol-2-ylamino]-N-carbamoylmethyl-benzamide]
Ki (CDK2/cyclin A): 65 nM
Ki (human CDK4/cyclin D3): 17 nM
IC50 (HCT-116 cell line): 18000 nM

Structure (SMILES): Nc1nc(Nc2ccc(C(=O)NCC3COc4ccccc4O3)cc2)sc1C(=O)c1c(F)cccc1F (stereo not drawn) [Example G367]
CDK2 % Inhibition at 0.03 μM (CDK2/cyclin A; 0.03 μM compound): 38%
CDK4 % Inhibition at 0.03 μM (human CDK4/cyclin D3; 0.03 μM compound): 15%
HCT-116 % Inhibition at 0.1 μM (HCT-116 cell line; HCT-116 cells, 0.1 μM compound): 22%
HCT-116 % Inhibition at 0.25 μM (HCT-116 cell line; [1]): 71%

Structure (SMILES): CN(C)CCNC(=O)c1ccc(Nc2nc(N)c(C(=O)c3c(F)cccc3F)s2)cc1Cl [C]
Ki (CDK2/cyclin A): 170 nM
Ki (human CDK4/cyclin D3): 27 nM
IC50 (HCT-116 cell line): 210 nM

Structure (SMILES): Cc1cc(F)c(C(=O)c2sc(Nc3ccc(C(=O)NC[C@@H]4CCCN4C)cc3)nc2N)c(F)c1 [Example A68, 4-{4-Amino-5-(2,6-difluoro-4-methyl-benzoyl)-thiazol-2-ylamino}-N-(1-methyl-pyrrolidin-2S-ylmethyl)-benzamide]
Ki (CDK2/cyclin A): 8.5 nM
Ki (human CDK4/cyclin D3): 45 nM
IC50 (HCT-116 cell line): 75 nM

Structure (SMILES): Nc1nc(Nc2ccc(C(=O)Nc3cccc(C(F)(F)F)c3)cc2)sc1C(=O)c1c(F)cccc1F [Example G371]
CDK2 % Inhibition at 0.03 μM (CDK2/cyclin A; 0.03 μM compound): 11%
CDK4 % Inhibition at 0.03 μM (human CDK4/cyclin D3; 0.03 μM compound): 7%
HCT-116 % Inhibition at 0.1 μM (HCT-116 cell line; HCT-116 cells, 0.1 μM compound): 27%
HCT-116 % Inhibition at 0.25 μM (HCT-116 cell line; [1]): 53%

Further lines, with some results ahead:

CDK2 % Inhibition at 0.03 μM (CDK2/cyclin A; 0.03 μM compound): −27%
CDK4 % Inhibition at 0.03 μM (human CDK4/cyclin D3; 0.03 μM compound): 1%
Structure (SMILES): CCN(CC)CCCN(C)C(=O)c1ccc(Nc2nc(N)c(C(=O)c3c(F)cccc3F)s2)cc1 [Example G260]
HCT-116 % Inhibition at 0.1 μM (HCT-116 cell line; HCT-116 cells, 0.1 μM compound): 30%
HCT-116 % Inhibition at 0.25 μM (HCT-116 cell line; [1]): 59%

CDK2 % Inhibition at 0.03 μM (CDK2/cyclin A; 0.03 μM compound): −6%
CDK4 % Inhibition at 0.03 μM (human CDK4/cyclin D3; 0.03 μM compound): 9%
Structure (SMILES): Cc1ccc(O)c(NC(=O)c2ccc(Nc3nc(N)c(C(=O)c4c(F)cccc4F)s3)cc2)c1 [Example G396]
HCT-116 % Inhibition at 0.1 μM (HCT-116 cell line; HCT-116 cells, 0.1 μM compound): 14%
HCT-116 % Inhibition at 0.25 μM (HCT-116 cell line; [1]): 67%

CDK2 % Inhibition at 0.03 μM (CDK2/cyclin A; at 0.03 μM): 7%
CDK4 % Inhibition at 0.03 μM (human CDK4/cyclin D3; at 0.03 μM): 20%
Structure (SMILES): COc1ccccc1CCNC(=O)c1ccc(Nc2nc(N)c(C(=O)c3c(F)cccc3F)s2)cc1 [Example G185]
HCT-116 % Inhibition at 0.1 μM (HCT-116 cell line; HCT-116, at 0.1 μM): 10%
HCT-116 % Inhibition at 0.25 μM (HCT-116 cell line; HCT-116, at 0.25 μM): 49%

CDK2 % Inhibition at 0.03 μM (CDK2/cyclin A; 0.03 μM compound): −12%
CDK4 % Inhibition at 0.03 μM (human CDK4/cyclin D3; 0.03 μM compound): 9%
Structure (SMILES): CCCN(CCC#N)C(=O)c1ccc(Nc2nc(N)c(C(=O)c3c(F)cccc3F)s2)cc1 [Example G364]
HCT-116 % Inhibition at 0.1 μM (HCT-116 cell line; HCT-116 cells, 0.1 μM compound): 20%
HCT-116 % Inhibition at 0.25 μM (HCT-116 cell line; [1]): 40%

CDK2 % Inhibition at 0.03 μM (CDK2/cyclin A; at 0.03 μM): 0%
CDK4 % Inhibition at 0.03 μM (human CDK4/cyclin D3; at 0.03 μM): 11%
Structure (SMILES): Nc1nc(Nc2ccc(C(=O)NCC3CC3)cc2)sc1C(=O)c1c(F)cccc1F [Example G144]
HCT-116 % Inhibition at 0.1 μM (HCT-116 cell line; HCT-116, at 0.1 μM): 0%
HCT-116 % Inhibition at 0.25 μM (HCT-116 cell line; HCT-116, at 0.25 μM): 57%

CDK2 % Inhibition at 0.03 μM (CDK2/cyclin A; at 0.03 μM): 1%
CDK4 % Inhibition at 0.03 μM (human CDK4/cyclin D3; at 0.03 μM): 3%
Structure (SMILES): Nc1nc(Nc2ccc(C(=O)N3CCCC(CO)C3)cc2)sc1C(=O)c1c(F)cccc1F (stereo not drawn) [Example G48]
HCT-116 % Inhibition at 0.25 μM (HCT-116 cell line; HCT-116, at 0.25 μM): 50%
